From US20250368682A1, “NOVEL POLYPEPTIDE COMPOSITION FOR INTRACELLULAR TRANSFECTION” (AZOTHBIO INC., priority 2022, published 2025)

Experiments:
Type in all cases: cell-based
human primary T cells = assay: CAR plasmid DNA delivery, CAR expression by immunoblotting with FLAG antibody; settings: 4 μM L10-2×NLS, 2 μg FLAG-tagged CAR plasmid DNA, after 24 hours
Procedure: L10-2×NLS (4 μM) and FLAG-tagged CAR plasmid DNA (2 μg) were mixed and transfected into human primary T cells. After 24 hours, CAR expression in the human primary CD8+ T cells was confirmed by immunoblotting using FLAG antibody (FIG. 19).

Jurkat T cells [1] = assay: Fluorescein-labeled plasmid DNA delivery efficiency by FACS; settings: after 0.5 hours; 2 μg fluorescein-labeled plasmid DNA, 4 μM L10-2×NLS
Procedure: Fluorescein-labeled plasmid DNA (Takara) (2 μg) was mixed with L10-2×NLS (4 μM) and transfected into Jurkat T cells for 0.5, 1, 2, 3, 4, or 5 hours. Then, the delivery efficiency of the plasmid DNA into Jurkat T cells was analyzed using Novocyte FACS (Agilent) (FIG. 16).

Jurkat T cells [2] = assay: Location of fluorescein-labeled plasmid DNA by fluorescence microscope (Hoechst 33342)
Text: Next, fluorescein-labeled plasmid DNA and L10-2×NLS were mixed and transfected into Jurkat T cells, followed by treatment with nucleus staining reagent Hoechst 33342 (ThermoFisher). The location of the plasmid DNA in Jurkat T cells was then confirmed using a fluorescence microscope (Leica) (FIG. 17), and the data were quantified and analyzed through graphical representation (FIG. 18).

Jurkat T cells [3] = assay: FITC-labeled IgG antibody delivery efficiency by FACS; settings: L10-2×NLS 4 μM or higher, 1 μg FITC-labeled IgG, 2 hours
Procedure: FITC-labeled IgG (Thermofisher) (1 μg) was mixed with L10-2×NLS at different concentrations (0.5, 1, 2, 4, or 6 μM). Each mixture was treated with Jurkat T cells for 2 hours, and then the antibody delivery efficiency to cells was confirmed using Novocyte FACS (Agilent) (FIG. 21), and the presence of the corresponding antibodies in cells was observed using a fluorescence microscope (Leica) (FIG. 22).

Jurkat T cells [4] = assay: pEGFP-N3 plasmid DNA delivery, GFP expression by immunoblotting; settings: for GFP expression depending on copy number of NLS: 2, 3 or 4 copies of NLS after 10 leucines; for plasmid DNA delivery efficiency depending on leucine length: 10 or 11 leucines with 2×NLS, same experiment as Example 1-1
Procedure: Specific sequences thereof are shown in Table 2 below (Peptides 1 to 10). Each of the above peptides at a concentration of 4 μM was mixed with 2 μg of pEGFP-N3 plasmid for 30 minutes in a CO2 incubator at 37° C. After transfection of the plasmids into Jurkat T cells for 30 minutes, the expression of GFP was analyzed by immunoblotting after 24 hours (FIG. 1).
Peptides containing 10 or 11 leucine amino acids and 2×NLS linked thereto were prepared (Peptides 1 and 11), and based on these peptides, the effect of the number of leucine amino acids on the transmission level was further determined. Each of the above peptides was subjected to the same experiment as in Example 1-1, and then the expression of GFP was analyzed by immunoblotting (FIG. 2).
Peptides were prepared by varying the copy number of NLS, located following the 10 leucine amino acid sequences, to 2, 3, or 4, and specific sequences thereof are shown in Table 2 below (Peptides 1, 12, and 13). For each peptide, the change in GFP expression depending on the copy number of NLS was confirmed by immunoblotting (FIG. 3).
Accordingly, the copy number of NLS was set to 2, and a peptide (L10-2×NLS) in which the NLS amino acid sequence was located at the C-terminus, following leucine, and a peptide (2×NLS-L10) in which the NLS amino acid sequence was located at the N-terminus, preceding leucine, were prepared. Each of the above peptides (Peptide 1 and 14) was mixed with pEGFP-N3 and transfected into Jurkat T cells. Then, the expression changes of GFP were compared.
L10-2×NLS at different concentrations (2, 3, 4, 5, or 6 μM) was mixed with 2 μg of pEGFP-N3 and transfected into Jurkat T cells. The expression of GFP was then confirmed by immunoblotting (FIG. 5).
Next, pEGFP-N3 at different concentrations (0, 0.25, 0.5, 1, 2, 4, 5, or 6 μg) was mixed with 4 μM of L10-2×NLS and transfected into Jurkat T cells. The expression of GFP was then confirmed by immunoblotting (FIG. 6).
First, 4 μM L10-2×NLS and 2 μg pEGFP-N3 were mixed at 4, 16, 25, 37, or 42° C. for 30 minutes and transfected into Jurkat T cells for 30 minutes. […] (FIG. 7).
Thus, the temperature was set to 37° C., and 4 μM L10-2×NLS and 2 μg pEGFP-N3 were mixed for different times (10, 20, 30, 40, 50, or 60 minutes).
Finally, in an experiment as to the buffer used for the mixing, 4 μM of L10-2×NLS and 2 μg of pEGFP-N3 were mixed with Opti-MEM, DPBS, or Serum free RPMI-1640 (SF) buffer, respectively.
L10-2×NLS (4 μM) and pEGFP-N3 (2 μg) were mixed according to the above optimized conditions and transfected into Jurkat T cells for 0.5, 1, 2, 3, 4, or 5 hours to compare the changes in GFP expression over time (FIG. 10).

Jurkat T cells [5] = assay: Cell morphology and viability (MTT assay) after transfection; settings: 4 μM L10-2×NLS, 2 μg pEGFP-N3, morphology after 24 hours
Procedure: L10-2×NLS (4 μM) and pEGFP-N3 (2 μg) were mixed and transfected into Jurkat T cells, and changes in cell morphology after 24 hours were observed (FIG. 14). The cell viability after transfection was analyzed using MTT assay (FIG. 15).

Ac-LLLLLLLLLLPKKKRKVPKKKRKV-NH2 [L10-2×NLS]
CAR expression in human primary CD8+ T cells (human primary T cells): confirmed
plasmid DNA delivery efficiency (Jurkat T cells [1]): about 90%
plasmid DNA delivery to cells (Jurkat T cells [2]; 1 hour after transfection): delivered to the majority of cells
plasmid DNA found in the nucleus, efficiency (Jurkat T cells [2]; at 4 hours): approximately 40%
antibody delivery efficiency (Jurkat T cells [3]): approximately 90%
transfection level compared to Lipofectamine (Jurkat T cells [4]; 4 μM peptide, 2 μg pEGFP-N3, immunoblot after 24 hours): significantly higher level compared to Lipofectamine®
GFP expression depending on hydrophobic amino acid type (Jurkat T cells [4]; 4 μM peptide, 2 μg pEGFP-N3, mixed 30 min at 37° C., transfection 30 min, immunoblot after 24 hours, among Peptides 1 to 10): highest GFP expression
GFP expression depending on copy number of NLS (Jurkat T cells [4]): highest expression of GFP
plasmid DNA delivery efficiency depending on leucine length (Jurkat T cells [4]): highest efficiency
transformation efficiency depending on N-terminal/C-terminal location of NLS (Jurkat T cells [4]; L10-2×NLS compared with 2×NLS-L10): high efficiency
GFP expression depending on mixing buffer (Jurkat T cells [4]; Opti-MEM, DPBS or Serum free RPMI-1640): transfection levels were maintained
GFP expression efficiency depending on pEGFP-N3 amount (Jurkat T cells [4]; at 2 μg pEGFP-N3 (tested 0-6 μg), 4 μM L10-2×NLS): highest
GFP expression efficiency depending on L10-2×NLS concentration (Jurkat T cells [4]; at 4 μM (tested 2, 3, 4, 5, 6 μM), 2 μg pEGFP-N3): highest expression efficiency of GFP
GFP expression depending on mixing temperature (Jurkat T cells [4]; mixing at 37° C. (tested 4, 16, 25, 37, 42° C.) for 30 minutes): highest expression of GFP
GFP expression depending on mixing time (Jurkat T cells [4]; mixing time 30 minutes (tested 10-60 minutes), 37° C.): highest expression level
GFP expression depending on transfection time (Jurkat T cells [4]; transfection for 0.5 or 1 hour (tested 0.5-5 hours)): sufficient to deliver plasmid DNA
cell damage or cell death after transfection (Jurkat T cells [5]): did not cause any damage or cell death

N′-LLLLLLLLLLLPKKKRKVPKKKRKV-C′ (Ac-LLLLLLLLLLLPKKKRKVPKKKRKV-NH2) [Peptide 11]
plasmid DNA delivery efficiency depending on leucine length (Jurkat T cells [4]): a certain level of high efficiency was maintained

N′-LLLLLLLLLLPKKKRKVPKKKRKVPKKKRKV-C′ (Ac-LLLLLLLLLLPKKKRKVPKKKRKVPKKKRKV-NH2) [Peptide 12]
GFP expression depending on copy number of NLS (Jurkat T cells [4]): maintained above a certain level

N′-LLLLLLLLLLPKKKRKVPKKKRKVPKKKRKVPKKKRKV-C′ (Ac-LLLLLLLLLLPKKKRKVPKKKRKVPKKKRKVPKKKRKV-NH2) [Peptide 13]
GFP expression depending on copy number of NLS (Jurkat T cells [4]): maintained above a certain level
